pIC50: −log10 of the molar value.
Legend:
PfRuvB3 [1] = assay: PfRuvB3 unwinding activity: requirement of co-factors and effects of salt/EDTA; type: biochemical, Plasmodium falciparum; conditions: for Relative activity (%), PfRuvB3 unwinding activity: standard reaction = 35
Experimental: (§1) Unwinding of [^32P]-labelled partial duplex DNA was employed as a measurement of helicase activity. The reaction mixture (10 µl) contained 20 mM Tris–HCl pH 9.0, 8 mM DTT, 2 mM MgCl2, 2 mM ATP, 10 mM KCl, 4% (w/v) sucrose, […] BSA, [^32P]-labelled DNA duplex substrate (Table 1) and purified PfRuvB3. The assay was performed at 37 °C for 90 min (unless indicated otherwise) and terminated with addition of 10X DNA loading dye (Fermentas, USA) and further incubation at 37 °C for 5 min. Helicase substrate and product were separated by 12% non-denaturing PAGE and then the gel was exposed to an X-ray film. DNA unwinding was quantified by densitometric analysis of exposed substrate and product bands using GeneTools (Syngene). Percent unwinding is calculated using the following formula: [band density of product [single-stranded (ss)DNA] / (band density of ssDNA + band density of substrate (duplex DNA)] × 100 minus [percent unwinding in the absence of enzyme].
The ability of PfRuvB3 to hydrolyze different NTPs was studied by including 2 mM dATP, dCTP, dGTP, or dTTP in place of ATP in the standard reaction assay. The effects of ATP concentrations ranging from 0.3 to 20 mM on helicase activity were also determined. Divalent cation requirement was investigated mixture 2 mM CaCl2, CuCl2, NiSO4, ZnCl2, FeSO4, MnCl2 or MgSO4 in place of MgCl2. Effects of salt (0-200 mM NaCl in place of 10 mM KCl) and EDTA (5 mM) also were evaluated.

PfRuvB3 [2] = assay: Effect of DNA helicase inhibitors on PfRuvB3 unwinding (helicase) activity; type: biochemical, Plasmodium falciparum; conditions: recombinant PfRuvB3; M13-17-mer duplex DNA pre-incubated with 0.1 to 50 μM drug for 10 min; 37 °C 90 min
Experimental: as §1
Known DNA helicase inhibitors, aphidicolin genistein, daunorubicin, doxorubicin, mitoxantrone, and netropsin (Sigma, USA) were prepared as 10^−2 M stock solutions in dimethylsulfoxide (DMSO) and stored at −20 °C until used. All compounds were diluted with 10 mM Tris–HCl, pH 9.0 to specified concentrations for the assay. M13-17-mer duplex DNA was pre-incubated with 0.1 to 50 μM drug for 10 min prior to addition to the standard helicase assay mixture. The 0.5% (v/v final concentration) of DMSO was used as solvent control to determine its effects on helicase activity. The dose–response curves of relative activities of PfRuvB3 and various drug concentrations were generated, and half-maximal inhibitory concentration (IC50), the concentration of compound to inhibit enzyme activity by 50%, was obtained using GraphPad Prism 6.01 software.

[3] = biological target: P. falciparum DNA helicase A (PfDH A); design: method as in PMID 16772048; conditions: cited from earlier work
[4] = biological target: P. falciparum UvrD helicase (PfUDN); conditions: cited from earlier work
[5] = biological target: P. falciparum 45 kDa helicase (PfH45); design: method as in PMID 17822710; conditions: cited from earlier work
[6] = biological target: P. falciparum 60 kDa DNA helicase (PfDH60); design: method as in PMID 16884495; conditions: cited from earlier work
[7] = biological target: human DNA helicase (HDH II); design: method as in PMID 1614415; conditions: cited from earlier work
parasite growth = system: parasite growth; design: method as in PMID 16772048; conditions: read-out: IC50, parasite growth inhibition; cited from earlier work
[8] = system: P. falciparum Dbp5/DDX19 homolog (PfD66); design: method as in PMID 21980563; conditions: cited from earlier work
[9] = 2 mM divalent cation salt in place of MgCl2, 1 μg PfRuvB3
[10] = 2 mM dNTP in place of ATP, 1 μg PfRuvB3

[Cl-].[Cl-].[Zn+2] [ZnCl2]
Relative activity (%), PfRuvB3 unwinding activity (PfRuvB3 [1]; [9]): 30%

O=c1c(-c2ccc(O)cc2)coc2cc(O)cc(O)c12 [genistein]
pIC50 (PfRuvB3 [2]): < 4.30

[Cl][Ni][Cl] [NiCl2]
Relative activity (%), PfRuvB3 unwinding activity (PfRuvB3 [1]; [9]): 34%

[Cl][Cu][Cl] [CuCl2]
Relative activity (%), PfRuvB3 unwinding activity (PfRuvB3 [1]; [9]): 36%

O=C(O)CN(CCN(CC(=O)O)CC(=O)O)CC(=O)O [EDTA]
Relative activity (%), PfRuvB3 unwinding activity (PfRuvB3 [1]; +EDTA (5 mM)): <2%
Helicase function (PfRuvB3 [1]; EDTA 5 mM added to reaction mixture): complete loss of helicase function

O=C1c2c(O)ccc(O)c2C(=O)c2c(NCCNCCO)ccc(NCCNCCO)c21 [mitoxantrone]
pIC50 (PfRuvB3 [2]): < 4.30

Cc1cn([C@H]2C[C@H](O)[C@@H](COP(=O)(O)OP(=O)(O)OP(=O)(O)O)O2)c(=O)[nH]c1=O [dTTP]
Relative activity (%), PfRuvB3 unwinding activity (PfRuvB3 [1]; [10]): <2%

Nc1nc2c(ncn2[C@H]2C[C@H](O)[C@@H](COP(=O)(O)OP(=O)(O)OP(=O)(O)O)O2)c(=O)[nH]1 [dGTP]
Relative activity (%), PfRuvB3 unwinding activity (PfRuvB3 [1]; [10]): <2%

O=S(=O)([O-])[O-].[Fe+2] [FeSO4]
Relative activity (%), PfRuvB3 unwinding activity (PfRuvB3 [1]; [9]): <2%

COc1cccc2c1C(=O)c1c(O)c3c(c(O)c1C2=O)C[C@@](O)(C(C)=O)C[C@@H]3O[C@H]1C[C@H](N)[C@H](O)[C@H](C)O1 [daunorubicin]
pIC50 (PfRuvB3 [2]): 6.12
pIC50 [3]: 5.70
pIC50 [4]: 5.36
pIC50 [5]: 5.30
pIC50 [6]: 5.52
pIC50 [7]: 5.21
pIC50 (parasite growth): 5.60

Nc1ncnc2c1ncn2[C@H]1C[C@H](O)[C@@H](COP(=O)(O)OP(=O)(O)OP(=O)(O)O)O1 [dATP]
Relative activity (%), PfRuvB3 unwinding activity (PfRuvB3 [1]; [10]): 33%

[Cl-].[Na+] [NaCl]
Unwinding activity of PfRuvB3 (PfRuvB3 [1]; 100 mM NaCl): almost absent
Relative activity (%), PfRuvB3 unwinding activity (PfRuvB3 [1]; +NaCl (200 mM)): <2%
Enzyme activity inhibited (PfRuvB3 [1]; NaCl 200 mM): ~98%

[Ca+2].[Cl-].[Cl-] [CaCl2]
Relative activity (%), PfRuvB3 unwinding activity (PfRuvB3 [1]; [9]): <2%

Nc1ccn([C@H]2C[C@H](O)[C@@H](COP(=O)(O)OP(=O)(O)OP(=O)(O)O)O2)c(=O)n1 [dCTP]
Relative activity (%), PfRuvB3 unwinding activity (PfRuvB3 [1]; [10]): <2%

O=S(=O)([O-])[O-].[Mg+2] [MgSO4]
Relative activity (%), PfRuvB3 unwinding activity (PfRuvB3 [1]; [9]): 37%

C[C@@]1(CO)[C@H](O)CC[C@@]2(C)[C@H]1CC[C@H]1C[C@@H]3C[C@@]12CC[C@]3(O)CO [aphidicolin]
pIC50 (PfRuvB3 [2]): < 4.30

[Cl][Mn][Cl] [MnCl2]
Relative activity (%), PfRuvB3 unwinding activity (PfRuvB3 [1]; [9]): <2%

COc1cccc2c1C(=O)c1c(O)c3c(c(O)c1C2=O)C[C@@](O)(C(=O)CO)C[C@@H]3O[C@H]1C[C@H](N)[C@H](O)[C@H](C)O1 [doxorubicin]
pIC50 (PfRuvB3 [2]): 5.59
pIC50 (parasite growth): 5.82

Cn1cc(NC(=O)c2cc(NC(=O)CN=C(N)N)cn2C)cc1C(=O)NCCC(=N)N [netropsin]
pIC50 (PfRuvB3 [2]): 5.15
pIC50 [4]: 5.48
pIC50 [5]: 6.10
pIC50 [6]: 6.30
pIC50 [8]: 5.49
